Assay results as given in patent publication US20070191372A1, “Dna-targeted benzotriazine 1,4-dioxides and their use in cancer therapy” (Auckland Uniservices Limited, priority 2002, published 2007).

Tests used:
[1] = tested on: human colon carcinoma HT-29; test: Clonogenic assay under aerobic and hypoxic conditions, HT-29; assay type: cell-based; settings: HT 29 cells; for C10 hypoxic: 60 min drug exposure, concentration reducing plating efficiency to 10% of controls; for HCR: ratio of C10 under aerobic and hypoxic conditions; for RHT: ratio of hypoxic TPZ C10 to hypoxic compound C10
Protocol: (§1) Evaluation of the Cytotoxicity of Compounds by Clonogenic Assay Under Aerobic and Hypoxic Conditions.
(§2) Compounds representative of the invention were evaluated under both aerobic and hypoxic conditions in clonogenic assays, using three cell lines: human colon carcinoma HT-29, murine SCCVII, and human lung adenocarcinoma LXFL. Clonogenic survival was determined using aerobic and hypoxic SCCVII cell suspensions. Drug exposures were performed using continuously stirred and gassed single cell suspensions (10^6 cells/mL) at 37° C., equilibrated with 5% CO2 in air or N2 for 60 min before drug addition. After a 60 min drug exposure cells were washed by centrifugation and plated to determine colony formation Cytotoxicity was measured as the concentration required to reduce plating efficiency to 10% of controls (C10). The hypoxic cytotoxicity ratio (HCR) was determined as the ratio of the C10 values under aerobic and hypoxic conditions. The relative hypoxic toxicity (RHT) was determined as the ratio of hypoxic TPZ C10 to hypoxic BTO C10. Abbreviations used in Table 2 are:
(§3) C10=The concentration of drug (in micromolar) to reduce viable cell numbers to 10% of those of control cell cultures grown under the same conditions but not exposed to drug
(§4) RHT=Relative hypoxic toxicity is defined as the ratio of concentrations of Tirapazamine/test compound to give equal cell killing under hypoxic conditions.
(§5) HCR=Hypoxic cytotoxicity ratio is defined as the ratio of drug concentrations under aerobic and hypoxic condition to produce equal cell survival (10%) determined by clonogenic assay

murine SCCVII = test: Clonogenic assay under aerobic and hypoxic conditions, SCCVII; assay type: cell-based; settings: SCVIII cells; for IC90: Mus musculus, 1 h, hypoxic, 60 min drug exposure, SN (hypoxic), read-out: C10 hypoxic; for HCR: ratio of C10 under aerobic and hypoxic conditions; for RHT: ratio of hypoxic TPZ C10 to hypoxic compound C10
Protocol: as §1, §2, §3, §4, §5

[2] = tested on: human lung adenocarcinoma LXFL; test: Clonogenic assay under aerobic and hypoxic conditions, LXFL; assay type: cell-based; settings: LXFL cells; for C10 hypoxic: 60 min drug exposure; for HCR: ratio of C10 under aerobic and hypoxic conditions; for RHT: ratio of hypoxic TPZ C10 to hypoxic compound C10
Protocol: as §1, §2, §3, §4, §5

[3] = tested on: human colon carcinoma HT-29; test: Proliferation assay (IC50) under aerobic and hypoxic conditions, HT-29; assay type: cell-based; settings: for RHT: HT-29, ratio Tirapazamine/test compound under hypoxic conditions; for HCR: HT-29, ratio of IC50 under aerobic and hypoxic conditions; for IC50: Homo sapiens, HT-29, hypoxic (anoxia <0.001% O2), 4 h exposure
Protocol: (§6) Evaluation of the Cytotoxicity of Compounds by Proliferation Assay (IC50) Under Aerobic and Hypoxic Conditions.
(§7) Compounds representative of the invention were evaluated under both aerobic and hypoxic conditions in a proliferation assay (IC50), using two cell lines: human colon carcinoma HT-29, and human cervical carcinoma SiHa.
(§8) Drug exposures were performed in 96-well plates (Nunc) using either a 37° C. humidified incubator (20% O2, 5% CO2) or in the incubator compartment (37° C.) of an anaerobic chamber (Shell Lab) where palladium catalyst scrubbed gas (90% N2, 5% H2, 5% CO2) ensures severe anoxia (<0.001% O2). For each experiment, compounds were simultaneously tested under both oxic and hypoxic conditions against the HT-29 cell line and included TPZ as an independent internal control at the front and back of the assay (n=2). Final data was pooled from a series of seven independent experiments and is calculated using inter-experimental means. In all cases, 8-methyl-5-nitroquinoline was used as a second internal control to confirm that strict hypoxia was present during the experiment. (Siim et al. Br. J. Cancer 1994, 70, 596-603). Cell cultures were grown in αMEM (Gibco) containing 5% heat inactivated FCS and maintained in exponential growth phase. For each individual experiment an appropriate number of cells were seeded (HT-29=1000) into wells in αMEM÷10% FCS+10 mM added glucose+100 μM 2′-deoxycytidine (2′dCyd), and allowed to attach for 3 h. High glucose (final concentration 17 mM) and the presence of 2′-dCyd minimize hypoxia-induced cell cycle arrest. Replicates were then exposed to BTOs, using 2-fold serial dilutions in triplicate, for a further 4 h. Subsequently cells were washed free of compound using complete media (without glucose/2′-dCyd) and allowed to grow for 5 (oxic) or 6 (anoxic) days. Plates were stained as described previously (Wilson et al., J. Med. Chem. 1989, 32, 31-38) and IC50 values determined.
(§9) IC50=The concentration of drug (in micromolar) to reduce viable cell numbers to 50% of those of control cell cultures grown under the same conditions but not exposed to drug
as §4
(§10) HCR=Hypoxic cytotoxicity ratio is defined as the ratio of drug concentrations under aerobic and hypoxic condition to produce equal cell survival (50%) determined by proliferation assay

[4] = cited from earlier work
[5] = tested on: human cervical carcinoma SiHa; test: Proliferation assay (IC50) under aerobic and hypoxic conditions, SiHa; assay type: cell-based
Protocol: as §6, §7, §8, §9, §4, §10

Structure (SMILES) | C10 hypoxic [1] [µM] | HCR [1] | RHT [1] | IC90 (murine SCCVII) [nM] | HCR (murine SCCVII) | RHT (murine SCCVII) | C10 hypoxic [2] [µM] | HCR [2] | RHT [2] | RHT [3] | HCR [3] | IC50 [3] [nM] | activity under aerobic or hypoxic conditions [4] | IC50 ([5]; Homo sapiens, hypoxic, 4 h exposure) [nM] | RHT ([5]; ratio Tirapazamine/test compound under hypoxic conditions) | HCR ([5]; ratio of IC50 under aerobic and hypoxic conditions)
[O-][n+]1nc(NCCCCCCNc2c3ccccc3nc3ccccc23)[n+]([O-])c2ccccc21 [Compound 11, N^1-(9-Acridinyl)-N^6-(1,4-dioxido-1,2,4-benzotriazin-3-yl)-1,6-hexanediamine] | 0.12 | 83.0 | 416 | 480 | 20.0 | 16.7 | 0.04 | 35.0 | 450 | 370 | 38 | 16 | – | – | – | –
Nc1nc2ccccc2[n+]([O-])n1 [SR 4317] | – | – | – | – | – | – | – | – | – | – | – | – | inactive | – | – | –
Nc1nnc2ccccc2n1 [SR 4330] | – | – | – | – | – | – | – | – | – | – | – | – | inactive | – | – | –
O=C(NCCCNCCCNc1n[n+]([O-])c2ccccc2[n+]1[O-])c1cccc2cc3ccccc3nc12 [Compound 30, N-[3-({3-[(1,4-Dioxido-1,2,4-benzotriazin-3-yl)amino]propyl}amino)propyl]-4-acridinecarboxamide] | 0.9 | 33.0 | 78 | 300 | 21.3 | 20 | 0.4 | 12.5 | 50 | 90 | 167 | 65 | – | 31 | 121 | 41
